Laboratory results: PubChem BioAssay (NCI)
“And” between values parts separate entries of the source, which are not always exact repeats. Equal values may be shown once.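 Briefly, cells in 96-well plates were exposed to five compound concentrations for 48 h, and endpoints were estimated by linear interpolation. GI50 marks 50% less growth. Definition used: TGI = concentration required for complete inhibition of growth.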

What was measured:
Test in all cases: NCI anticancer screen, dose series, 48 h
[1] = tested on: OVCAR-5 ovarian
[2] = tested on: EKVX NSCLC
[3] = tested on: SR leukemia
[4] = tested on: KM12 colon
[5] = tested on: SK-MEL-28 melanoma
[6] = tested on: MDA-MB-435
[7] = tested on: SF-268 CNS
[8] = tested on: PC-3 prostate
[9] = tested on: HCT-116 colon
[10] = tested on: MALME-3M melanoma
[11] = tested on: UO-31 renal
[12] = tested on: NCI-H23 lung
[13] = tested on: SK-MEL-2 melanoma
[14] = tested on: U251 CNS
[15] = tested on: ACHN renal
[16] = tested on: RPMI-8226 leukemia
[17] = tested on: NCI-H522 lung
[18] = tested on: A549 NSCLC
[19] = tested on: A498 renal
[20] = tested on: OVCAR-4 ovarian
[21] = tested on: K-562 leukemia
[22] = tested on: MDA-N
[23] = tested on: HOP-62 NSCLC
[24] = tested on: IGROV1 ovarian
[25] = tested on: MCF7 breast
[26] = tested on: SF-539 CNS
[27] = tested on: BT-549 breast
[28] = tested on: SK-OV-3 ovarian
[29] = tested on: DU-145 prostate
[30] = tested on: NCI/ADR-RES ovarian
[31] = tested on: CAKI-1 renal
[32] = tested on: NCI-H460 lung
[33] = tested on: LOX IMVI melanoma
[34] = tested on: SNB-19 CNS
[35] = tested on: SK-MEL-5 melanoma
[36] = tested on: UACC-257 melanoma
[37] = tested on: COLO 205 colon
[38] = tested on: HCC-2998 colon
[39] = tested on: SN12C renal
[40] = tested on: SNB-75 CNS
[41] = tested on: SW-620 colon
[42] = tested on: T-47D breast
[43] = tested on: HOP-92 NSCLC
[44] = tested on: 786-0 renal
[45] = tested on: HCT-15 colon
[46] = tested on: UACC-62 melanoma
[47] = tested on: MDA-MB-231 breast
[48] = tested on: OVCAR-3 ovarian
[49] = tested on: M14 melanoma
[50] = tested on: MOLT-4 leukemia
[51] = tested on: HT29 colon
[52] = tested on: HS 578T breast
[53] = tested on: OVCAR-8 ovarian
[54] = tested on: SF-295 CNS
[55] = tested on: TK-10 renal
[56] = tested on: NCI-H226 lung
[57] = tested on: RXF 393 renal
[58] = tested on: CCRF-CEM leukemia

CC(=O)N1CCOC12N=NC(C)(C)O2 (configuration not stated)
TGI [1]: > 100000 nM
TGI [2]: > 100000 nM
TGI [3]: > 100000 nM
TGI [4]: > 100000 nM
TGI [5]: > 100000 nM
TGI [6]: > 100000 nM
TGI [7]: > 100000 nM
TGI [8]: > 100000 nM
TGI [9]: > 100000 nM
TGI [10]: > 100000 nM
TGI [11]: > 100000 nM
TGI [12]: > 100000 nM
TGI [13]: > 100000 nM
TGI [14]: > 100000 nM
TGI [15]: > 100000 nM
TGI [16]: > 100000 nM
TGI [17]: > 100000 nM
TGI [18]: > 100000 nM
TGI [19]: > 100000 nM
TGI [20]: > 100000 nM
TGI [21]: > 100000 nM
TGI [22]: > 100000 nM
TGI [23]: > 100000 nM
TGI [24]: > 100000 nM
TGI [25]: > 100000 nM
TGI [26]: > 100000 nM
TGI [27]: > 100000 nM
TGI [28]: > 100000 nM
TGI [29]: > 100000 nM
TGI [30]: > 100000 nM
TGI [31]: > 100000 nM
TGI [32]: > 100000 nM
TGI [33]: > 100000 nM
TGI [34]: > 100000 nM
TGI [35]: > 100000 nM
TGI [36]: > 100000 nM
TGI [37]: > 100000 nM
TGI [38]: > 100000 nM
TGI [39]: > 100000 nM
TGI [40]: > 100000 nM
TGI [41]: > 100000 nM
TGI [42]: > 100000 nM
TGI [43]: > 100000 nM
TGI [44]: > 100000 nM
TGI [45]: > 100000 nM
TGI [46]: > 100000 nM
TGI [47]: > 100000 nM
TGI [48]: > 100000 nM
TGI [49]: > 100000 nM
TGI [50]: > 100000 nM
TGI [51]: > 100000 nM
TGI [52]: > 100000 nM
TGI [53]: > 100000 nM
TGI [54]: > 100000 nM
TGI [55]: > 100000 nM

O=C(CC1(O)CCCCC1)OC1CCCC1
TGI [1]: > 100000 nM
TGI [2]: > 100000 nM
TGI [4]: > 100000 nM
TGI [6]: > 100000 nM
TGI [7]: > 100000 nM
TGI [8]: > 100000 nM
TGI [9]: > 100000 nM
TGI [10]: > 100000 nM
TGI [11]: > 100000 nM
TGI [12]: > 100000 nM
TGI [13]: > 100000 nM
TGI [14]: > 100000 nM
TGI [15]: > 100000 nM
TGI [17]: > 100000 nM
TGI [18]: > 100000 nM
TGI [19]: > 100000 nM
TGI [20]: > 100000 nM
TGI [22]: > 100000 nM
TGI [23]: > 100000 nM
TGI [24]: > 100000 nM
TGI [25]: > 100000 nM
TGI [26]: > 100000 nM
TGI [27]: > 100000 nM
TGI [28]: > 100000 nM
TGI [29]: > 100000 nM
TGI [30]: > 100000 nM
TGI [31]: > 100000 nM
TGI [32]: > 100000 nM
TGI [33]: > 100000 nM
TGI [34]: > 100000 nM
TGI [35]: > 100000 nM
TGI [36]: > 100000 nM
TGI [37]: > 100000 nM
TGI [39]: > 100000 nM
TGI [40]: > 100000 nM
TGI [42]: > 100000 nM
TGI [43]: > 100000 nM
TGI [44]: > 100000 nM
TGI [45]: > 100000 nM
TGI [46]: > 100000 nM
TGI [56]: > 100000 nM
TGI [47]: > 100000 nM
TGI [48]: > 100000 nM
TGI [49]: > 100000 nM
TGI [57]: > 100000 nM
TGI [51]: > 100000 nM
TGI [52]: > 100000 nM
TGI [53]: > 100000 nM
TGI [54]: > 100000 nM
TGI [55]: > 100000 nM

CCCC(=O)Nc1cc(/C=C/C(=O)N2C[C@@H]3C[C@]34C2=CC(=O)c2[nH]cc(C)c24)n(C)c1
GI50 [1]: 142 nM
GI50 [2]: 172 nM
TGI [3]: 70.9 nM
TGI [4]: 2600 nM
TGI [5]: 1600 nM
GI50 [6]: 184 nM
TGI [6]: 1050 nM and 471 nM
TGI [7]: 4890 nM
GI50 [8]: 125 nM
TGI [8]: 5700 nM and 625 nM
GI50 [9]: 30 nM
TGI [9]: 8320 nM and 69900 nM
TGI [10]: 337 nM
TGI [11]: 4340 nM
GI50 [12]: 11.9 nM
TGI [12]: 645 nM and 93.9 nM
GI50 [13]: 151 nM
TGI [13]: 817 nM and 287 nM
GI50 [14]: 35.9 nM
TGI [14]: 3720 nM and 13800 nM
TGI [15]: 796 nM
GI50 [16]: 193 nM
TGI [16]: 3720 nM and 757 nM
GI50 [17]: 28.7 nM
TGI [17]: 219 nM and 141 nM
TGI [19]: 689 nM and 478 nM
GI50 [20]: 180 nM
TGI [20]: 1430 nM and 474 nM
TGI [21]: 25000 nM
TGI [22]: 879 nM
TGI [23]: 25000 nM
TGI [24]: 25000 nM
GI50 [25]: 20.8 nM
TGI [26]: 4590 nM
GI50 [27]: 233 nM
TGI [27]: 1960 nM and 749 nM
TGI [28]: 7970 nM
GI50 [29]: 25.2 nM
GI50 [30]: 946 nM
TGI [30]: 6380 nM and 4770 nM
GI50 [31]: 90.1 nM
TGI [31]: 571 nM and 529 nM
GI50 [32]: 53 nM
TGI [32]: 2510 nM and 394 nM
GI50 [33]: 11.2 nM
GI50 [34]: 180 nM
TGI [34]: 25000 nM and 11300 nM
TGI [35]: 334 nM
GI50 [38]: 114 nM
TGI [38]: 687 nM and 370 nM
TGI [58]: 131 nM and 267 nM
GI50 [39]: 64 nM
TGI [39]: 2410 nM and 1590 nM
GI50 [40]: 61 nM
TGI [40]: 1210 nM and 248 nM
TGI [41]: 25000 nM
TGI [42]: 1080 nM
GI50 [43]: 282 nM
TGI [43]: 1960 nM and 741 nM
GI50 [44]: 21 nM
TGI [45]: 9890 nM
GI50 [46]: 97.2 nM
TGI [46]: 352 nM and 222 nM
TGI [56]: 3760 nM
TGI [47]: 1680 nM
TGI [48]: 1200 nM
GI50 [49]: 67.2 nM
TGI [49]: 1550 nM and 220 nM
TGI [50]: 134 nM and 515 nM
GI50 [57]: 111 nM
TGI [57]: 298 nM and 238 nM
TGI [51]: 2770 nM
GI50 [52]: 143 nM
TGI [52]: 1960 nM and 550 nM
GI50 [53]: 44.7 nM
TGI [53]: 406 nM and 285 nM
TGI [54]: 25000 nM
